Measurements as given in ChEMBL document CHEMBL1127942, “Phenol based tripeptide inhibitors of ras farnesyl protein transferase” (Bioorg Med Chem Lett, 1994).

The molecules below were run against Protein farnesyltransferase (Homo sapiens, UniProt P49354+P49356) (assay: Inhibition of Protein farnesyltransferase (FPT)). Conditions: read-out: I50.
Assay type: protein-complex assay

Structure (SMILES) | IC50 [µM]
CC(C)C[C@H](NC(=O)[C@@H](NC(=O)CCS)C(C)C)C(=O)N[C@@H](CO)C(=O)O | 1
CC(C)C[C@H](NC(=O)[C@@H](NC(=O)c1ccc(O)cc1)C(C)C)C(=O)N[C@@H](CO)C(=O)O | > 360
CC(C)C[C@H](NC(=O)[C@@H](NC(=O)c1cccc(O)c1)C(C)C)C(=O)N[C@@H](CO)C(=O)O | 29
CC(C)C[C@H](NC(=O)[C@@H](NC(=O)c1ccccc1O)C(C)C)C(=O)N[C@@H](CO)C(=O)O | > 360
CC(C)C[C@H](NC(=O)[C@@H](NC(=O)[C@@H](N)CO)C(C)C)C(=O)N[C@@H](CO)C(=O)O | > 360

Results, then the molecule that gave them:

IC50 [µM] | Structure (SMILES)
166 | CC(C)C[C@H](NC(=O)[C@@H](NC(=O)c1ccc(OCc2ccccc2)cc1)C(C)C)C(=O)N[C@@H](CO)C(=O)O
137 | CC(C)C[C@H](NC(=O)[C@@H](NC(=O)c1cc(O)ccc1OCc1ccccc1)C(C)C)C(=O)N[C@@H](CO)C(=O)O
63 | CC(C)C[C@H](NC(=O)[C@@H](NC(=O)c1ccccc1OCc1ccccc1)C(C)C)C(=O)N[C@@H](CO)C(=O)O
> 360 | CC(C)C[C@H](NC(=O)[C@@H](NC(=O)c1cccc(OCc2ccccc2)c1O)C(C)C)C(=O)N[C@@H](CO)C(=O)O
157 | CC(C)C[C@H](NC(=O)[C@@H](NC(=O)c1cccc(O)c1OCc1ccccc1)C(C)C)C(=O)N[C@@H](CO)C(=O)O
> 360 | CC(C)C[C@H](NC(=O)[C@@H](NC(=O)c1cccc(OCc2ccccc2)c1)C(C)C)C(=O)N[C@@H](CO)C(=O)O
